{
  "source": "patent US20230218624A1",
  "about": "(Urovant Sciences GmbH, priority 2017, published 2023)",
  "key": {"[1]": {"settings": "human, in vivo, po"}, "[2]": {"assay": "Mass balance study with [14C]vibegron in healthy subjects", "settings": "human plasma, 2 and 4 hr"}, "[3]": {"test_system": "men and women with OAB", "assay": "Phase 2b efficacy study in men and women with OAB", "assay_type": "in vivo, human", "excerpt": "Part 2 was designed to continue to assess the safety and efficacy of concomitant dosing. […] Subjects in both Part 1 and Part 2 had the option of enrolling in a 1-year extension. Participants were required to keep a voiding diary, recording the occurrence of each strong urge, total incontinence, and urge incontinence episode. Efficacy data for Part 1 and Part 2 are summarized herein.\nThe total number of urgency incontinence episodes must have exceeded the total number of stress incontinence episodes for all subjects.\nConversely, a dose dependent effect on urge incontinence or total incontinence was not observed."}, "[4]": {"test_system": "patients with overactive bladder", "assay": "Phase 2 safety data, adverse events (main study and 52-week extension)", "design": "Drug-related AE, n subjects / Drug-related AE, % subjects / Discontinuation due to AE, n subjects / Discontinuation due to AE, % subjects / Discontinuation due to drug-related AE, n subjects / Dry eye, n subjects / Dry eye, % subjects / Constipation, n subjects / Constipation, % subjects / Diarrhea, n subjects / Diarrhea, % subjects / Dry mouth, n subjects / Dry mouth, % subjects / Alanine aminotransferase increased, n subjects / Alanine aminotransferase increased, % subjects / Aspartate aminotransferase increased, n subjects / Aspartate aminotransferase increased, % subjects / Arthralgia, n subjects / Arthralgia, % subjects / Dizziness, n subjects / Dizziness, % subjects / Dysuria, n subjects / Dysuria, % subjects: dose or concentration left out as unconfirmed", "excerpt": "A placebo group was included in the main study, and a group that received tolterodine monotherapy was included in the main study and in the extension."}, "[5]": {"test_system": "patients with OAB", "assay": "Phase 2b cardiovascular safety: orthostatic AEs, HR and BP changes", "assay_type": "in vivo, human", "settings": "tolterodine 4 mg", "excerpt": "None led to discontinuation. The overall incidence of orthostatic symptoms was low.\nSmall differences in the percent of subjects exceeding categorical heart rate and blood pressure thresholds for vibegron were similar to those in the tolterodine arm."}, "[6]": {"test_system": "QTc interval", "assay": "Thorough QT study, single oral doses", "settings": "single dose 400 mg moxifloxacin"}, "[7]": {"settings": "tolterodine ER 4 mg, OAB wet subjects"}, "[8]": {"settings": "3 consecutive post-baseline visits"}},
  "note": "Where two headings read alike, the source gives them in different places.",
  "data": [
    {"smiles": "C#C[C@]1(O)CC[C@H]2[C@@H]3CCc4cc(O)ccc4[C@H]3CC[C@@]21C", "note": "[EE, ethinyl estradiol]", "values": [
      {"measurement": "AUC of conmed, geometric mean", "setting": "[1]; 0.03 mg", "value": 0.81, "unit": "ng·h/mL"}
    ]},
    {"smiles": "C#C[C@]1(O)CC[C@H]2[C@@H]3CCC4=CC(=O)CC[C@@H]4[C@H]3CC[C@@]21CC", "note": "[LNG, levonorgestrel]", "values": [
      {"measurement": "AUC of conmed, geometric mean", "setting": "[1]; 0.15 mg", "value": 31, "unit": "ng·h/mL"}
    ]},
    {"smiles": "O=C(O)C1OC(OC(c2ccccc2)C2CCC(Cc3ccc(NC(=O)C4CCc5nccc(=O)n54)cc3)N2)C(O)C(O)C1O", "note": "(stereo not shown) [M7]", "values": [
      {"measurement": "share of total circulating drug-related material", "setting": "[2]", "value": "12-14%"}
    ]},
    {"smiles": "Cc1ccc(O)c([C@H](CCN(C(C)C)C(C)C)c2ccccc2)c1", "note": "[Tolterodine ER, tolterodine]", "values": [
      {"measurement": "Micturitions, change from baseline Week 8, mean", "setting": "[3]; tolterodine ER 4 mg", "value": "−1.73"},
      {"measurement": "Micturitions, daily number, Week 8 mean", "setting": "[3]; tolterodine ER 4 mg", "value": 9.24},
      {"measurement": "Micturitions, difference from placebo Week 8, difference in LS means", "setting": "[3]; tolterodine ER 4 mg", "value": "−0.54"},
      {"measurement": "Urgency episodes, change from baseline Week 8, mean", "setting": "[3]; tolterodine ER 4 mg", "value": "−2.52"},
      {"measurement": "Urgency episodes, daily number, Week 8 mean", "setting": "[3]; tolterodine ER 4 mg", "value": 3.91},
      {"measurement": "Urgency episodes, difference from placebo Week 8, difference in LS means", "setting": "[3]; tolterodine ER 4 mg", "value": "−0.94"},
      {"measurement": "Change from baseline in volume voided per micturition, difference from placebo in LS means", "setting": "[3]; tolterodine ER 4 mg once daily, Week 8", "value": 30.77, "unit": "mL"},
      {"measurement": "Total incontinence episodes, change from baseline Week 8, mean", "setting": "[3]; [7]", "value": "−1.80"},
      {"measurement": "Total incontinence episodes, daily number, Week 8 mean", "setting": "[3]; [7]", "value": 1.32},
      {"measurement": "Total incontinence episodes, difference from placebo Week 8, difference in LS means", "setting": "[3]; [7]", "value": "−0.34"},
      {"measurement": "Urgency incontinence episodes, change from baseline Week 8, mean", "setting": "[3]; [7]", "value": "−1.67"},
      {"measurement": "Urgency incontinence episodes, daily number, Week 8 mean", "setting": "[3]; [7]", "value": 1.15},
      {"measurement": "Urgency incontinence episodes, difference from placebo Week 8, difference in LS means", "setting": "[3]; [7]", "value": "−0.46"},
      {"measurement": "Accidental overdose, % subjects", "setting": "[4]; 4 mg, first 12 weeks", "value": "(2.3) %"},
      {"measurement": "Accidental overdose, n subjects", "setting": "[4]; 4 mg, first 12 weeks", "value": 6},
      {"measurement": "Fatigue, % subjects", "setting": "[4]; 4 mg, first 12 weeks", "value": "(2.3) %"},
      {"measurement": "Fatigue, n subjects", "setting": "[4]; 4 mg, first 12 weeks", "value": 6},
      {"measurement": "Headache, % subjects", "setting": "[4]; 4 mg, first 12 weeks", "value": "(3.5) %"},
      {"measurement": "Headache, n subjects", "setting": "[4]; 4 mg, first 12 weeks", "value": 9},
      {"measurement": "Nasopharyngitis, % subjects", "setting": "[4]; 4 mg, first 12 weeks", "value": "(1.6) %"},
      {"measurement": "Nasopharyngitis, n subjects", "setting": "[4]; 4 mg, first 12 weeks", "value": 4},
      {"measurement": "Nausea, % subjects", "setting": "[4]; 4 mg, first 12 weeks", "value": "(2.3) %"},
      {"measurement": "Nausea, n subjects", "setting": "[4]; 4 mg, first 12 weeks", "value": 6},
      {"measurement": "Osteoarthritis, % subjects", "setting": "[4]; 4 mg, first 12 weeks", "value": "(0.0) %"},
      {"measurement": "Osteoarthritis, n subjects", "setting": "[4]; 4 mg, first 12 weeks", "value": 0},
      {"measurement": "Pain in extremity, % subjects", "setting": "[4]; 4 mg, first 12 weeks", "value": "(0.4) %"},
      {"measurement": "Pain in extremity, n subjects", "setting": "[4]; 4 mg, first 12 weeks", "value": 1},
      {"measurement": "Serious AE, % subjects", "setting": "[4]; 4 mg, first 12 weeks", "value": "(1.2) %"},
      {"measurement": "Serious AE, n subjects", "setting": "[4]; 4 mg, first 12 weeks", "value": 3},
      {"measurement": "Sinusitis, % subjects", "setting": "[4]; 4 mg, first 12 weeks", "value": "(0.4) %"},
      {"measurement": "Sinusitis, n subjects", "setting": "[4]; 4 mg, first 12 weeks", "value": 1},
      {"measurement": "Urinary tract infection, % subjects", "setting": "[4]; 4 mg, first 12 weeks", "value": "(4.7) %"},
      {"measurement": "Urinary tract infection, n subjects", "setting": "[4]; 4 mg, first 12 weeks", "value": 12},
      {"measurement": "≥1 AE, % subjects", "setting": "[4]; 4 mg, first 12 weeks", "value": "(45.1) %"},
      {"measurement": "≥1 AE, n subjects", "setting": "[4]; 4 mg, first 12 weeks", "value": 116},
      {"measurement": "frequency of injuries", "setting": "[4]; Phase 2 study arms", "value": 2.1, "unit": "%"},
      {"measurement": "Alanine aminotransferase increased, % subjects", "setting": "[4]; first 12 weeks", "value": "(0.4) %"},
      {"measurement": "Alanine aminotransferase increased, n subjects", "setting": "[4]; first 12 weeks", "value": 1},
      {"measurement": "Arthralgia, % subjects", "setting": "[4]; first 12 weeks", "value": "(1.2) %"},
      {"measurement": "Arthralgia, n subjects", "setting": "[4]; first 12 weeks", "value": 3},
      {"measurement": "Aspartate aminotransferase increased, % subjects", "setting": "[4]; first 12 weeks", "value": "(0.0) %"},
      {"measurement": "Aspartate aminotransferase increased, n subjects", "setting": "[4]; first 12 weeks", "value": 0},
      {"measurement": "Constipation, % subjects", "setting": "[4]; first 12 weeks", "value": "(1.9) %"},
      {"measurement": "Constipation, n subjects", "setting": "[4]; first 12 weeks", "value": 5},
      {"measurement": "Diarrhea, % subjects", "setting": "[4]; first 12 weeks", "value": "(3.5) %"},
      {"measurement": "Diarrhea, n subjects", "setting": "[4]; first 12 weeks", "value": 9},
      {"measurement": "Discontinuation due to AE, % subjects", "setting": "[4]; first 12 weeks", "value": "(1.6) %"},
      {"measurement": "Discontinuation due to AE, n subjects", "setting": "[4]; first 12 weeks", "value": 4},
      {"measurement": "Discontinuation due to drug-related AE, n subjects", "setting": "[4]; first 12 weeks", "value": 0},
      {"measurement": "Dizziness, % subjects", "setting": "[4]; first 12 weeks", "value": "(1.9) %"},
      {"measurement": "Dizziness, n subjects", "setting": "[4]; first 12 weeks", "value": 5},
      {"measurement": "Drug-related AE, % subjects", "setting": "[4]; first 12 weeks", "value": "(16.3) %"},
      {"measurement": "Drug-related AE, n subjects", "setting": "[4]; first 12 weeks", "value": 42},
      {"measurement": "Dry eye, % subjects", "setting": "[4]; first 12 weeks", "value": "(3.9) %"},
      {"measurement": "Dry eye, n subjects", "setting": "[4]; first 12 weeks", "value": 10},
      {"measurement": "Dry mouth, % subjects", "setting": "[4]; first 12 weeks", "value": "(8.6) %"},
      {"measurement": "Dry mouth, n subjects", "setting": "[4]; first 12 weeks", "value": 22},
      {"measurement": "Dysuria, % subjects", "setting": "[4]; first 12 weeks", "value": "(1.2) %"},
      {"measurement": "Dysuria, n subjects", "setting": "[4]; first 12 weeks", "value": 3},
      {"measurement": "SAEs reported", "setting": "[4]; tolterodine 4 mg, main study", "value": 3},
      {"measurement": "DBP change from baseline, mean (week 1)", "setting": "[5]", "value": "−0.12", "unit": "mm Hg"},
      {"measurement": "DBP change from baseline, mean maximum (week 1 to 8)", "setting": "[5]", "value": 5.19, "unit": "mm Hg"},
      {"measurement": "HR change from baseline, mean (week 1)", "setting": "[5]", "value": 0.68, "unit": "bpm"},
      {"measurement": "HR change from baseline, mean maximum (week 1 to 8)", "setting": "[5]", "value": 5.66, "unit": "bpm"},
      {"measurement": "SBP change from baseline, mean (week 1)", "setting": "[5]", "value": 0.04, "unit": "mm Hg"},
      {"measurement": "SBP change from baseline, mean maximum (week 1 to 8)", "setting": "[5]", "value": 7.29, "unit": "mm Hg"},
      {"measurement": "DBP change from baseline ≥5 mm Hg, subjects", "setting": "[5]; [8]", "value": "(12.4) %"},
      {"measurement": "DBP change from baseline ≥10 bpm, subjects", "setting": "[5]; [8]", "value": "(5.4) %"},
      {"measurement": "DBP change from baseline ≥15 bpm, subjects", "setting": "[5]; [8]", "value": "(1.2) %"},
      {"measurement": "HR change from baseline ≥5 mm Hg, subjects", "setting": "[5]; [8]", "value": "(12.0) %"},
      {"measurement": "HR change from baseline ≥10 bpm, subjects", "setting": "[5]; [8]", "value": "(4.5) %"},
      {"measurement": "HR change from baseline ≥15 bpm, subjects", "setting": "[5]; [8]", "value": "(1.7) %"},
      {"measurement": "SBP change from baseline ≥5 mm Hg, subjects", "setting": "[5]; [8]", "value": "(16.9) %"},
      {"measurement": "SBP change from baseline ≥10 bpm, subjects", "setting": "[5]; [8]", "value": "(7.9) %"},
      {"measurement": "SBP change from baseline ≥15 bpm, subjects", "setting": "[5]; [8]", "value": "(2.9) %"}
    ]},
    {"smiles": "COc1c(N2C[C@@H]3CCCN[C@@H]3C2)c(F)cc2c(=O)c(C(=O)O)cn(C3CC3)c12", "note": "[moxifloxacin, reference compound]", "values": [
      {"measurement": "effect on QTcF", "setting": "[6]", "value": "statistically significant effect"}
    ]}
  ]
}
